Results reported in PubChem BioAssay (NCI).
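Cultured in 96-well plates, cells were exposed to test compound for 48 hours across five concentrations. TGI denotes the concentration required for complete inhibition of growth.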

Legend:
Test in all cases: growth of human tumour cells (NCI), 48 h
[1] = system: IGROV1 ovarian
[2] = system: SNB-78 CNS
[3] = system: TK-10 renal
[4] = system: M19-MEL melanoma
[5] = system: A498 renal
[6] = system: NCI-H522 lung
[7] = system: SF-539 CNS
[8] = system: M14 melanoma
[9] = system: LXFL 529 NSCLC
[10] = system: CCRF-CEM leukemia
[11] = system: XF 498 CNS
[12] = system: DU-145 prostate

Row | SMILES | TGI [1] | TGI [2] | TGI [3] | TGI [4] | TGI [5] | TGI [6] | TGI [7] | TGI [8] | TGI [9] | TGI [10] | TGI [11] | TGI [12]
1 | O=C1C=CC(=O)N1Nc1ccc([N+](=O)[O-])cc1[N+](=O)[O-] | > 100 µM | > 100 µM | > 100 µM | > 100 µM | > 100 µM | > 58.9 µM | > 100 µM | 40 µM | > 64.6 µM | > 34.3 µM |  | 
2 | Cc1cc(=O)c2c([nH]1)NS(=O)(=O)NC2=O | > 100 µM | > 100 µM | > 100 µM | > 100 µM | > 100 µM | > 100 µM | > 100 µM | > 100 µM | > 100 µM | > 100 µM | > 100 µM | 
3 | BrC/C=C/C[P+](c1ccccc1)(c1ccccc1)c1ccccc1 | > 100 µM | > 100 µM | 42 µM | 33.2 µM |  | 51.3 µM | 22.4 µM | 82.4 µM | 45.1 µM | > 100 µM | 43.6 µM | 
4 | Cc1cn(C2OC(C)(CO)C(O)C2O)c(=O)[nH]c1=O (configuration not stated) | > 100 µM |  | > 100 µM | > 100 µM | > 100 µM | > 100 µM | > 100 µM | > 100 µM | > 100 µM | > 100 µM |  | 
5 | CC(=O)N(C(C)=O)C1=C2c3ccccc3N(S(=O)(=O)c3ccccc3)C2n2c(=O)n(-c3ccccc3)c(=O)n2C1 (configuration not stated) | > 100 µM |  | > 100 µM | 94.7 µM |  | 39.5 µM | 38.5 µM | 69.4 µM | > 100 µM | > 100 µM |  | 
6 | CC(C(=O)n1nnc2ccccc21)N(c1ccccc1)c1ccccc1 (configuration not stated) | > 100 µM | > 100 µM | > 100 µM | > 100 µM |  | > 100 µM | > 100 µM | > 100 µM | > 100 µM | > 100 µM |  | 
7 | CC(=O)OCC1OC(n2cc([N+](=O)[O-])c(=O)[nH]c2=O)C(OC(C)=O)C(OC(C)=O)C1OC(C)=O (configuration not stated) | > 100 µM |  | > 100 µM | > 100 µM | > 100 µM | > 100 µM |  | > 100 µM | > 100 µM | > 100 µM | > 100 µM | 
8 | C=CCNC(=S)/N=C/c1c(O)c2ccccc2oc1=O | > 100 µM | > 100 µM | > 100 µM | > 100 µM | > 100 µM | > 100 µM | > 100 µM | > 100 µM | > 100 µM | > 100 µM | > 100 µM | 
9 | Cc1c(C(=O)CSc2nc3ccccc3c(=O)n2-c2ccccc2)c(=O)n(-c2ccccc2)n1C | > 100 µM | > 100 µM | > 100 µM | > 100 µM | > 100 µM | 79.5 µM | > 100 µM | > 100 µM |  | > 100 µM | > 100 µM | 
10 | CO[C@]12CC(=O)C3(C(C[C@H]4CC5CC=C6C[C@@H](OC(C)=O)CC[C@]6(OC(C)=O)C5C[C@@]43C)C1)C1C[C@H]3[C@@H]4CC=C5C[C@@H](OC(C)=O)CC[C@]5(OC(C)=O)[C@H]4CC[C@]3(C)C12 (some centres not stated) | 42.8 µM |  | > 100 µM |  | 66.1 µM | 31.7 µM | 37.2 µM | 47.2 µM |  | > 100 µM |  | 41.4 µM
11 | CC(=O)N/N=C1\NC(=O)C[C@H]2[C@@H]3CC=C4C[C@@H](OC(C)=O)CC[C@]4(C)[C@H]3CC[C@]12C | > 100 µM |  | 41.7 µM |  | 35.2 µM | > 100 µM | 25.9 µM | > 100 µM |  | > 100 µM |  | > 100 µM
12 | C=C[C@@H]1C(CO)=CCC2[C@H]1CCC1C(C)(C)C(=O)CC[C@]21C (some centres not stated) | > 100 µM |  | > 100 µM |  | > 100 µM | > 100 µM | > 100 µM | > 100 µM |  | > 100 µM |  | > 100 µM
13 | Brc1cccc(Nc2nc(-c3cccs3)nc3ccc(Br)cc23)c1 | > 100 µM |  | 88 µM |  | > 100 µM | 54.9 µM | > 100 µM | 71.3 µM |  | > 100 µM |  | > 100 µM
14 | Cc1nn(C(=O)Cc2ccccc2)c2c1C(c1ccc(O)cc1)SC(N)=N2 (configuration not stated) | > 100 µM |  | > 100 µM |  | > 100 µM | > 100 µM | > 100 µM | > 100 µM |  | > 100 µM |  | > 100 µM
